From ChEMBL document CHEMBL1201862, “PubChem BioAssay data set” (2004)
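These data come from cells grown in 96-well plates and exposed to compound for 48 hours at five concentrations. GI50 marks 50% less growth.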 The source made the active and inactive calls. Rule as the data show it: active = GI50 up to about 1.1 µM and inactive = higher.

Key:
Test in all cases: NCI-60 cell line screen, 48 h
SW-620 = system: SW-620
HCT-15 = system: HCT-15
OVCAR-4 = system: OVCAR-4
HOP-62 = system: HOP-62
SNB-78 = system: SNB-78
DMS-273 = system: DMS-273
RPMI-8226 = system: RPMI-8226
HL-60 = system: HL-60
T47D = system: T47D
LOX IMVI = system: LOX IMVI
ACHN = system: ACHN
SF-295 = system: SF-295
HOP-92 = system: HOP-92
U-251 = system: U-251
SK-MEL-28 = system: SK-MEL-28
PC-3 = system: PC-3
KM-20L2 = system: KM-20L2
MDA-MB-231 = system: MDA-MB-231
SK-MEL-5 = system: SK-MEL-5
HCC 2998 = system: HCC 2998
DMS-114 = system: DMS-114
KM12 = system: KM12
MOLT-4 = system: MOLT-4
OVCAR-3 = system: OVCAR-3
786-0 = system: 786-0
NCI-H23 = system: NCI-H23
SNB-19 = system: SNB-19
BT-549 = system: BT-549
HT-29 = system: HT-29
TK-10 = system: TK-10
SN12C = system: SN12C
DU-145 = system: DU-145
NCI-H522 = system: NCI-H522
CCRF-CEM = system: CCRF-CEM
HCT-116 = system: HCT-116
SNB-75 = system: SNB-75
MDA-MB-435 = system: MDA-MB-435
NCI-H460 = system: NCI-H460
RXF 393 = system: RXF 393
EKVX = system: EKVX
MDA-N = system: MDA-N
UACC-62 = system: UACC-62
SK-MEL-2 = system: SK-MEL-2
CAKI-1 = system: CAKI-1
K562 = system: K562
UO-31 = system: UO-31
IGROV-1 = system: IGROV-1
NCI-H226 = system: NCI-H226
A498 = system: A498
SR = system: SR
Malme-3M = system: Malme-3M
COLO 205 = system: COLO 205
M14 = system: M14
SK-OV-3 = system: SK-OV-3
A549 = system: A549
MCF7 = system: MCF7
SF-268 = system: SF-268
OVCAR-8 = system: OVCAR-8
SF-539 = system: SF-539
NCI/ADR-RES = system: NCI/ADR-RES
OVCAR-5 = system: OVCAR-5
UACC-257 = system: UACC-257
LXFL 529 = system: LXFL 529
Hs-578T = system: Hs-578T

## O=C(O)CCSC(=S)Nc1ccc([N+](=O)[O-])cc1
SW-620
  GI50: > 70.1 µM (inactive)
HCT-15
  GI50: > 56.6 µM
OVCAR-4
  GI50: > 56.5 µM (inactive)
HOP-62
  GI50: > 94.2 µM (inactive)
SNB-78
  GI50: > 100 µM (inactive)
DMS-273
  GI50: 75.9 µM (inactive)
RPMI-8226
  GI50: 27.3 µM (inactive)
HL-60
  GI50: 20.8 µM (inactive)
T47D
  GI50: 31.3 µM (inactive)
LOX IMVI
  GI50: 31.9 µM (inactive)
ACHN
  GI50: 33.8 µM (inactive)
SF-295
  GI50: 40.5 µM (inactive)
HOP-92
  GI50: 29.9 µM (inactive)
U-251
  GI50: > 56.2 µM (inactive)
SK-MEL-28
  GI50: 41.3 µM (inactive)
PC-3
  GI50: 48.2 µM (inactive)
KM-20L2
  GI50: > 100 µM (inactive)
MDA-MB-231
  GI50: > 100 µM (inactive)
SK-MEL-5
  GI50: 20.3 µM (inactive)
HCC 2998
  GI50: > 89.9 µM (inactive)
DMS-114
  GI50: 37.7 µM (inactive)
KM12
  GI50: > 80.2 µM (inactive)
MOLT-4
  GI50: 8.38 µM (inactive)
OVCAR-3
  GI50: 45 µM (inactive)
786-0
  GI50: > 100 µM (inactive)
NCI-H23
  GI50: > 66.7 µM (inactive)
SNB-19
  GI50: > 81.8 µM (inactive)
BT-549
  GI50: 36.2 µM (inactive)
HT-29
  GI50: > 94 µM (inactive)
TK-10
  GI50: 51.8 µM (inactive)
SN12C
  GI50: > 74 µM (inactive)
DU-145
  GI50: 43.6 µM (inactive)
NCI-H522
  GI50: > 46.5 µM (inactive)
CCRF-CEM
  GI50: 23.7 µM (inactive)
HCT-116
  GI50: 60.7 µM (inactive)
SNB-75
  GI50: 33.4 µM (inactive)
MDA-MB-435
  GI50: 24.4 µM (inactive)
NCI-H460
  GI50: > 82.6 µM (inactive)
RXF 393
  GI50: > 60.8 µM (inactive)
EKVX
  GI50: > 51.4 µM (inactive)
MDA-N
  GI50: 23.1 µM (inactive)
UACC-62
  GI50: 21.6 µM (inactive)
SK-MEL-2
  GI50: > 61.4 µM (inactive)
CAKI-1
  GI50: > 100 µM (inactive)
K562
  GI50: 27.2 µM (inactive)
UO-31
  GI50: > 63.1 µM (inactive)
IGROV-1
  GI50: 42.9 µM (inactive)
NCI-H226
  GI50: > 75.2 µM (inactive)
A498
  GI50: > 70.3 µM (inactive)
SR
  GI50: 11.7 µM (inactive)
Malme-3M
  GI50: 38.2 µM (inactive)
COLO 205
  GI50: 97.9 µM (inactive)
M14
  GI50: > 85.9 µM (inactive)
SK-OV-3
  GI50: > 100 µM (inactive)
A549
  GI50: > 83.2 µM (inactive)
MCF7
  GI50: 40.1 µM (inactive)
SF-268
  GI50: 34.5 µM (inactive)
OVCAR-8
  GI50: 36.6 µM (inactive)
SF-539
  GI50: 39.5 µM (inactive)
NCI/ADR-RES
  GI50: 40.8 µM (inactive)
OVCAR-5
  GI50: > 100 µM (inactive)
UACC-257
  GI50: 22.3 µM (inactive)
LXFL 529
  GI50: 46.6 µM (inactive)
Hs-578T
  GI50: > 100 µM (inactive)
